Patent US5714467A, “Antibacterial and antimalarial hybrid peptides” (The Rockefeller University, priority 1993, dated 1998)
Where no end group is shown, it is not given here.

How the values were obtained:
Bacillus subtilis Bs11 = assay: inhibition zone assay, lethal concentration; type: cell-based; details: for Lethal concentration, Bacillus subtilis Bs11 (Medium E): Table 2, Medium E; for Lethal concentration, Bs11 = B. subtilis: Table 3, agarose plates; for Lethal concentration, Bs11 = B. subtilis / Lethal concentration, Bs11 + ME = B. subtilis, plates prepared with medium E: overnight incubation at 30° C.; for Lethal concentration, Bs11 + ME = B. subtilis, plates prepared with medium E: Table 3, medium E, agarose plates
Experimental: (§1) The products of the invention were tested for activity against a variety of test organisms selected to represent a number of different types of pathogens some of them known to be particularly virulent by the inhibition zone assay of Hoffmann et al (1981) Insect Biochem. 11 537-548 which is incorporated herein by reference. Thin agar or agarose plates (8.5 cm diameter) were prepared with 6 ml of rich medium containing 100 ug/ml of streptomycin and 2×10^5 viable cells of a test organism resistant to streptomycin. Wells of […] diameter were punched in the plates and 3 ul of serially diluted samples were placed in the wells. The diameters of the zones of inhibition around the wells were measured after overnight incubation at 30° or 37° C. For each peptide the squares of the zone diameters were plotted against the logarithm of the concentration, and from the slopes and intercepts the lethal concentrations were calculated as described by Hultmark (1983) EMBO J. 2, 571-76 or Hultmark et al (1982) Eur. J. Biochem. 127 207-217 each of which being incorporated herein by reference.
(§2) It was observed during testing that basic peptides often bind to agar plates, but not so much to agarose. Therefore those lethal concentrations determined on agar may, in fact, be substantially higher than the actual lethal concentrations.
(§3) Novel peptides CA(1-8)M(1-18), CA(1-9)M(1-17), CB(1-13)M(1-13), CA(1-17)M(1-9), CA(1-18)M(1-8), M(1-13)CA(1-22) and M(1-13)CA(1-13) were prepared as described above (see Examples 1-6). These novel peptides and CA, CB, and M were tested for activity against a variety of organisms selected to represent a number of different types of pathogens, some of them known to be particularly virulent by the inhibition zone assay of Hoffmann et al (1981), Insect Biochem. 11 537-48. As in Examples 1-6, thin agarose plates were prepared with the respective organisms. The diameters of the zones of inhibition were measured after overnight incubation at 30° C. The lethal concentrations were determined as described above (see Examples 1-6; Hultmark et al articles cited thereat).

Escherichia coli D21 = assay: inhibition zone assay, lethal concentration; type: cell-based; details: for Lethal concentration, D21 = E. coli: Table 3, agarose plates, overnight incubation at 30° C.
Experimental: as §1, §2, §3

[1] = test system: Pseudomonas aeruginosa OT97; assay: inhibition zone assay, lethal concentration; type: cell-based; details: for Lethal concentration, OT97 = P. aeruginosa: Table 3, agarose plates, overnight incubation at 30° C.
Experimental: as §1, §2, §3

[2] = test system: Staphylococcus aureus Cowan I; assay: inhibition zone assay, lethal concentration; type: cell-based; details: for Lethal concentration, Staphylococcus aureus Cowan I: Table 2, footnote a: incubation overnight at 30° C. as well as at 37° C.; for Lethal concentration, Staph = S. aureus Cowan I: Table 3, agarose plates, overnight incubation at 30° C.
Experimental: as §1, §2, §3

Streptococcus pyogenes = assay: inhibition zone assay, lethal concentration; type: cell-based; details: for Lethal concentration, Strep = S. pyogenes: Table 3, agarose plates, overnight incubation at 30° C.
Experimental: as §1, §2, §3

Candida albicans = assay: inhibition zone assay, lethal concentration; type: cell-based; details: Table 2, footnote c: incubation overnight at 37° C.
Experimental: as §1, §2

Saccharomyces cerevisiae = assay: inhibition zone assay, lethal concentration; type: cell-based; details: Table 2, footnote c: incubation overnight at 37° C.
Experimental: as §1, §2

[3] = test system: Staphylococcus haemolyticus; assay: inhibition zone assay, lethal concentration; type: cell-based; details: Table 2, footnote c: incubation overnight at 37° C.
Experimental: as §1, §2

[4] = test system: Xenorhabdus nematophilis Xn21; assay: inhibition zone assay, lethal concentration; type: cell-based; details: Table 2, footnote c: incubation overnight at 37° C.
Experimental: as §1, §2

Sheep Red Cells = assay: lysis of sheep red blood cells (lysis assay or SRC plate assay); type: cell-based; details: for Lethal concentration, SRC = Sheep Red Cells: Table 3
Experimental: These values were obtained by either the lysis assay normally used for melittin or by an adaptation of the antibacterial inhibition zone assay of the above-cited Hultmark et al articles to plates with sheep red cells (SRC). With respect to the latter, sterile agarose plates contained 6 ml of medium With 1% agarose, 0.9% NaCl and 10% SRC suspended in Alsevers solution. A dilution series of peptide was applied in 3 mm wells each loaded with 3 μl of the respective samples. The plates were incubated at 30° C. for 24 h, the zones were recorded and LC values calculated as described in the Hultmark et al articles. Clear zones were recorded after a few hours of incubation and the use of such data gave an LC value of the same order as readings after 24 h. This plate assay is faster and more convenient than the lysis assay normally used for melittin.

[5] = test system: Plasmodium falciparium strain F32 (Tanzania), blood stream forms; assay: inhibition of reinvasion of human red cells by malaria parasite; type: cell-based, Plasmodium falciparum; details: for IC50: Table 4, P. falciparum, read-out: 50% Reinvasion Inhibition; for antimalarial potency in words: FIG. 1, blood stream form of Plasmodium falciparium
Experimental: Hybrid peptides CA(1-13)M(1-13) and CA(1-8)M(1-18) were prepared as described above (see Examples 1-6) and were assayed for activity against the blood stream form of Plasmodium falciparium. For comparison the test included cecropins A and B and the frog skin peptides magainin 2 and PGLa.
The blood stream forms of the malaria parasite Plasmodium falciparium, primarily late trophozoites and early schizonts, were assayed by recording the inhibition of the reinvasion of human red cells by the method of Wahlin, B., et al, (1984) Proc. Nat'l Acad. Sci. USA 81, 7912-16, incorporated herein by reference. Quadruplicate microcultures of strain F32 (Tanzania) were incubated for 20 hrs at 37° C. in a complete tissue culture medium, with or without different concentrations of the peptides to be assayed. After acridine orange staining, the percentage of newly infected red cells was scored in a fluorescence microscope. For each culture 40,000 red cells were analysed for parasitic infection. Duplicate assays were run for CA(1-13)M(1-13).

Bacillus megaterium BM11 = assay: inhibition zone assay, lethal concentration; type: cell-based; details: Table 2, footnote c: incubation overnight at 37° C.
Experimental: as §1, §2

Escherichia coli D22 = assay: inhibition zone assay, lethal concentration; type: cell-based; details: Table 2, footnote c: incubation overnight at 37° C.
Experimental: as §1, §2

Micrococcus luteus Ml11 = assay: inhibition zone assay, lethal concentration; type: cell-based; details: Table 2, footnote c: incubation overnight at 37° C.
Experimental: as §1, §2

[6] = Table 2, footnote a: incubation overnight at 30° C. as well as at 37° C.
[7] = Table 2, footnote b: incubation overnight at 30° C.
[8] = Table 2, footnote c: incubation overnight at 37° C.

CC[C@H](C)[C@H](NC(=O)CN)C(=O)NCC(=O)N[C@@H](C)C(=O)N[C@H](C(=O)N[C@@H](CC(C)C)C(=O)N[C@@H](CCCCN)C(=O)N[C@H](C(=O)N[C@@H](CC(C)C)C(=O)N[C@H](C(=O)N[C@H](C(=O)NCC(=O)N[C@@H](CC(C)C)C(=O)N1CCC[C@H]1C(=O)N[C@@H](C)C(=O)N[C@@H](CC(C)C)C(=O)N[C@H](C(=O)N[C@@H](CO)C(=O)N[C@@H](Cc1c[nH]c2ccccc12)C(=O)N[C@H](C(=O)N[C@@H](CCCCN)C(=O)N[C@@H](CCCNC(=N)N)C(=O)N[C@@H](CCCCN)C(=O)N[C@@H](CCCNC(=N)N)C(=O)N[C@@H](CCC(N)=O)C(=O)N[C@@H](CCC(N)=O)C(N)=O)[C@@H](C)CC)[C@@H](C)CC)[C@@H](C)O)[C@@H](C)O)C(C)C)C(C)C [M(1-26), Melittin]
Lethal concentration, Bacillus subtilis Bs11 (Medium E) (Bacillus subtilis Bs11; no incubation footnote): 0.3 µM | Lethal concentration, Bacillus subtilis Bs11 (Bacillus subtilis Bs11; [6]): 0.2 µM | Lethal concentration, Bs11 = B. subtilis (Bacillus subtilis Bs11): 0.2 µM | Lethal concentration, Bs11 + ME = B. subtilis, plates prepared with medium E (Bacillus subtilis Bs11): 0.3 µM | Lethal concentration, Escherichia coli D21 (Escherichia coli D21; [6]): 0.8 µM | Lethal concentration, D21 = E. coli (Escherichia coli D21): 0.8 µM | Lethal concentration, Pseudomonas aeruginosa OT97 [1, 6]: 3 µM | Lethal concentration, OT97 = P. aeruginosa [1]: 3 µM | Lethal concentration, Staphylococcus aureus Cowan I [2]: 0.2 µM | Lethal concentration, Staph = S. aureus Cowan I [2]: 0.2 µM | Lethal concentration, Streptococcus pyogenes (Streptococcus pyogenes; [6]): 0.5 µM | Lethal concentration, Strep = S. pyogenes (Streptococcus pyogenes): 0.5 µM | Lethal concentration, Candida albicans (Candida albicans): 150 µM | Lethal concentration, Saccharomyces cerevisiae (Saccharomyces cerevisiae): 10 µM | Lethal concentration, Staphylococcus haemolyticus [3]: 0.3 µM | Lethal concentration, Xenorhabdus nematophilis Xn21 [4]: 9 to 50 µM | Lethal concentration, Sheep Red Cells (Sheep Red Cells; [7]): 4 to 8 µM | Lethal concentration, Sheep Red Cells (Sheep Red Cells; [8]): 4 to 6 µM | Lethal concentration, SRC = Sheep Red Cells (Sheep Red Cells): 4 to 8 µM

Cecropin P-1
IC50 [5]: 90 µM

KWKLFKKIEKVGQNIRDGIIKAGPAVAVVGQATQIAK-NH2 [CA(1-37), Cecropin A]
Lethal concentration, Bacillus subtilis Bs11 (Medium E) (Bacillus subtilis Bs11; footnote c: incubation overnight at 37° C.): 200 µM | Lethal concentration, Bacillus subtilis Bs11 (Bacillus subtilis Bs11; [6]): 4 µM | Lethal concentration, Bs11 = B. subtilis (Bacillus subtilis Bs11): 4 µM | Lethal concentration, Bs11 + ME = B. subtilis, plates prepared with medium E (Bacillus subtilis Bs11): 200 µM | Lethal concentration, Escherichia coli D21 (Escherichia coli D21; [6]): 0.2 µM | Lethal concentration, D21 = E. coli (Escherichia coli D21): 0.2 µM | Lethal concentration, Pseudomonas aeruginosa OT97 [1, 7]: 2 µM | Lethal concentration, Pseudomonas aeruginosa OT97 [1, 8]: 1.6 µM | Lethal concentration, OT97 = P. aeruginosa [1]: 2 µM | Lethal concentration, Staphylococcus aureus Cowan I [2]: > 200 µM | Lethal concentration, Staph = S. aureus Cowan I [2]: 200 µM | Lethal concentration, Streptococcus pyogenes (Streptococcus pyogenes; [7]): 4 µM | Lethal concentration, Streptococcus pyogenes (Streptococcus pyogenes; [8]): 6 µM | Lethal concentration, Strep = S. pyogenes (Streptococcus pyogenes): 4 µM | Lethal concentration, Bacillus megaterium BM11 (Bacillus megaterium BM11): 1 µM | Lethal concentration, Candida albicans (Candida albicans): > 200 µM | Lethal concentration, Escherichia coli D22 (Escherichia coli D22): 0.5 µM | Lethal concentration, Micrococcus luteus Ml11 (Micrococcus luteus Ml11): 1 µM | Lethal concentration, Saccharomyces cerevisiae (Saccharomyces cerevisiae): 60 µM | Lethal concentration, Staphylococcus haemolyticus [3]: 3 µM | Lethal concentration, Xenorhabdus nematophilis Xn21 [4]: 2 µM | Lethal concentration, Sheep Red Cells (Sheep Red Cells; [6]): > 200 µM | Lethal concentration, SRC = Sheep Red Cells (Sheep Red Cells): 200 µM | antimalarial potency in words [5]: negligible activity

KWKVFKKIEKMGRNIRNGIVKAGPAIAVLGEAKAL-NH2 [CB(1-35), Cecropin B]
Lethal concentration, D21 = E. coli (Escherichia coli D21): 0.3 µM | Lethal concentration, OT97 = P. aeruginosa [1]: 1 µM | Lethal concentration, Staph = S. aureus Cowan I [2]: 200 µM | Lethal concentration, Strep = S. pyogenes (Streptococcus pyogenes): 12 µM | antimalarial potency in words [5]: about as potent as Mag | IC50 [5]: 110 µM

PGLa [PGL^a]
antimalarial potency in words [5]: intermediate activity | IC50 [5]: 40 µM

WNPFKELEKVGQRVRDAVISAGPAVATVAQATALAK-NH2 [CD(2-37), Cecropin D]
Lethal concentration, Bacillus subtilis Bs11 (Bacillus subtilis Bs11; [8]): 100 µM | Lethal concentration, Escherichia coli D21 (Escherichia coli D21; [8]): 3.6 µM | Lethal concentration, Pseudomonas aeruginosa OT97 [1, 8]: 90 µM | Lethal concentration, Bacillus megaterium BM11 (Bacillus megaterium BM11): 30 µM | Lethal concentration, Escherichia coli D22 (Escherichia coli D22): 0.6 µM | Lethal concentration, Micrococcus luteus Ml11 (Micrococcus luteus Ml11): 12 µM

magainin 2
IC50 [5]: 80 µM
